Laboratory results from US20120077676A1, “Antifungal 1,2,4-Triazolyl Derivatives Having a 5-Sulfur Substituent” (BASF SE, priority 2009, published 2012).

Key:
[1] = system: Puccinia recondite; test: Preventative control of brown rust on wheat, green house test; type: in vivo, Puccinia recondite on wheat seedlings; conditions: 300 ppm, preventative spray one day before inoculation; assessed after 6 days in greenhouse; untreated plants 80% infected
Method: (§1) The spray solutions were prepared in several steps: A mixture of acetone and/or dimethylsulfoxide and the wetting agent/emulsifier Wettol, which is based on ethoxylated alkylphenoles, in a relation (volume) solvent-emulsifier of 99 to 1 was added to 25 mg of the compound to give a total of 10 ml. Water was then added to total volume of 100 ml. This stock solution was diluted with the described solvent-emulsifier-water mixture to the given concentration.
The first two developed leaves of pot-grown wheat seedling were sprayed to run-off with an aqueous suspension, containing the concentration of active ingredient or their mixture as described below. The next day the plants were inoculated with spores of Puccinia recondite. To ensure the success the artificial inoculation, the plants were transferred to a humid chamber without light and a relative humidity of 95 to 99% and 20 to 24° C. for 24 h. Then the trial plants were cultivated for 6 days in a greenhouse chamber at 20-24° C. and a relative humidity between 65 and 70%. The extent of fungal attack on the leaves was visually assessed as % diseased leaf area.

[2] = system: Phakopsora pachyrhizi; test: Curative control of soy bean rust on soy beans, green house test; type: in vivo, Phakopsora pachyrhizi on soy bean seedlings; conditions: 300 ppm, curative spray after inoculation; assessed after 14 days; untreated plants 90% infected
Method: as §1
Leaves of pot-grown soy bean seedlings were inoculated with spores of Phakopsora pachyrhizi. To ensure the success of the artificial inoculation, the plants were transferred to a humid chamber with a relative humidity of about 95% and 20 to 24° C. for 24 h. The next day the plants were cultivated for 2 days in a greenhouse chamber at 23-27° C. and a relative humidity between 60 and 80%. Then the plants were sprayed to run-off with an aqueous suspension, containing the concentration of active ingredient as described below. The plants were allowed to air-dry. Then the trial plants were cultivated for 14 days in a greenhouse chamber at 23-27° C. and a relative humidity between 60 and 80%. The extent of fungal attack on the leaves was visually assessed as % diseased leaf area.

[3] = system: Botrytis cinerea; test: Activity against the grey mold Botrytis cinerea in the microtiterplate test (Botrci); type: cell-based; conditions: 31 ppm active compound; absorption at 405 nm 7 days after inoculation; active compound-free control = 100%
Method: The active substances were formulated separately as a stock solution in dimethyl sulfoxide (DMSO) at a concentration of 10 000 ppm. The stock solutions were mixed according to the ratio, pipetted onto a micro titer plate (MTP) and diluted with water to the concentration given below. A spore suspension of Botrytis cinerea in an aqueous biomalt solution was then added. The plates were placed in a water vapor-saturated chamber at a temperature of 18° C. Using an absorption photometer, the MTPs were measured at 405 nm 7 days after the inoculation. The measured parameters were compared to the growth of the active compound-free control variant (100%) and the fungus-free and active compound-free blank value to determine the relative growth in % of the pathogens in the respective active compounds.

SMILES | infection (% diseased leaf area) [1] [%] | infection (% diseased leaf area) [2] [%] | relative growth in % of the pathogen [3] [%]
OC(CC1CC1)(Cn1ncnc1S)c1ccc(Cl)cc1 (stereo not shown) [I.A.1, 2-(4-Chloro-phenyl)-3-cyclopropyl-1-(5-mercapto-[1,2,4]triazol-1-yl)-propan-2-ol] | 20 | 0 | –
OC(CC1CC1)(Cn1ncnc1S)c1ccc(Cl)cc1Cl (stereo not shown) [I.A.2, 2-(2,4-Dichloro-phenyl)-3-cyclopropyl-1-(5-mercapto-[1,2,4]triazol-1-yl)-propan-2-ol] | 20 | 0 | –
CC(C1CCCCC1)C(O)(Cn1ncnc1S)c1ccc(Cl)cc1 (stereo not shown) [I.A.3, 2-(4-Chloro-phenyl)-3-cyclohexyl-1-(5-mercapto-[1,2,4]triazol-1-yl)-butan-2-ol] | 20 | 0 | 0
CC(C1CC1)C(O)(Cn1ncnc1S)c1ccccc1 (stereo not shown) [I.A.4, 2-Phenyl-3-cyclopropyl-1-(5-mercapto-[1,2,4]triazol-1-yl)-butan-2-ol] | 20 | 0 | –
CC(C1CC1)C(O)(Cn1ncnc1S)c1ccc(Cl)c(Cl)c1 (stereo not shown) [I.A.5, 2-(3,4-Dichloro-phenyl)-3-cyclopropyl-1-(5-mercapto-[1,2,4]triazol-1-yl)-butan-2-ol] | 20 | 0 | –
CC(C1(C)CC1)C(O)(Cn1ncnc1S)c1ccc(Cl)cc1 (stereo not shown) [I.A.6, 2-(4-Chloro-phenyl)-3-(1-methylcyclopropyl)-1-(5-mercapto-[1,2,4]triazol-1-yl)-butan-2-ol] | 20 | 0 | 0
CC(C1CCCC1)C(O)(Cn1ncnc1S)c1ccc(Cl)cc1 (stereo not shown) [I.A.7, 2-(4-Chloro-phenyl)-3-cyclopentyl-1-(5-mercapto-[1,2,4]triazol-1-yl)-butan-2-ol] | 20 | 0 | –
CC(C1CC1)C(O)(Cn1ncnc1S)c1ccc(F)c(F)c1 (stereo not shown) [I.A.8, 2-(3,4-Difluoro-phenyl)-3-cyclopropyl-1-(5-mercapto-[1,2,4]triazol-1-yl)-butan-2-ol] | 20 | 0 | –
CC(C1(C)CC1)C(O)(Cn1ncnc1S)c1ccccc1 (stereo not shown) [I.A.9, 2-Phenyl-3-(1-methylcyclopropyl)-1-(5-mercapto-[1,2,4]triazol-1-yl)-butan-2-ol] | – | 0 | –
